Test results reported in patent US9868737B2, “Pyridino[1,2-A]pyrimidone analogue used as MTOR/P13K inhibitor” (CISEN PHARMACEUTICAL CO., LTD., priority 2014, dated 2018).
Read-outs that look alike come from different tables or passages of the source.

Test system: MCF-7 cells
Experiment: In vitro test of cell activity (MCF-7 cells, insulin stimulation, ELISA-One fluorescence)
Type: cell-based
Conditions: Homo sapiens, MCF7, MCF-7 cells; for inhibition at 0.5 µM: conc. 0.5 μM; for inhibition at 0.25 µM: conc. 0.25 μM
Method: Example In Vitro Tests of Cell Activities Experimental Steps and Methods:
1) MCF-7 cells were inoculated at the density of 2.5×10^4 cells/well into 96-well plates (the culture medium used should be a complete culture medium containing 10% FBS).
2) On the next day, the medium in each well was drawn out. A certain concentration (preliminary screening) or a series of concentration (IC50 test) of compounds were dissolved in a culture medium without serum and added to the 96-well plates to culture cells for 2 hours.
3) Insulin was dissolved in a culture medium without serum, added to the cultured cells and incubated for 30 minutes, wherein the final concentration of insulin was […].
4) A lysis solution was prepared according to the following method during the waiting period for the reaction:
a) Enhancer solution was removed from the refrigerator to melt in advance.
b) Enhancer solution was diluted 10 times with the 5× Lysis Buffer to give a concentrated lysis solution.
c) The concentrated lysis solution was diluted 5 times with double distilled water to give the lysis solution.
5) The medium in each well was completely removed and each well was quickly rinsed with PBS once.
6) 150 μl of the freshly prepared lysis solution was added to each well and shaked at room temperature for 10 minutes.
7) After confirming that all cells were detached, the lysis solution together with the cell fragments was transferred into a 1.5 ml tube.
8) The tube was shaked on vortes mixer to make the lysis solution and cells mix completely and then the mixture was centrifugated at 4° C. under 12000 g for 10 minutes.
9) The number of strips of ELISA-one micro-well plate that is required was calculated. The needless strips were removed from the frame, put back into the storage bag and sealed. Before the strips of micro-well plate were used, 200 μl of double distilled water was used to rinse each well to remove preservative.
10) 50 μl of antibody mixture was added to each well. (The antibody mixture solution was prepared by mixing the medium antibody reagent and the enzyme labeled antibody reagent with an equal proportion. The preparation of antibody mixture didn't need vortex.)
11) 25 μl of cell lysates was added to each well of ELISA-One micro-well plate. The micro-well plate was covered with adhesive sealing film and incubated on a micro-well plate oscillation instrument at room temperature for 1 hour.
12) Each well was rinsed with 150 μl of 1× rinsing buffer 3 times. After the last rinsing, the rinsing buffer in the well was completely removed. If necessary, the 1× rinsing buffer could be allowed to stay in the micro-well plate for up to 30 minutes so that the substrate mixed solution could be prepared during such time period.
13) The substrate mixed solution should be prepared just before each use, 10 μl of the substrate mixed solution was added to each well and the micro-well plate was sealed with tin-foil and incubated on the micro-well plate oscillation instrument at room temperature for 10 minutes.
14) 10 μl of stop solution was added to each well and mixed slightly (5-10 seconds) on the micro-well plate oscillation instrument.
15) The corresponding ELISA-One filter group was assembled and used to read the fluorescence signal intensity.

Row | SMILES | IC50 (read-out: IC50 p-AKT) [nM] | inhibition at 0.5 µM (read-out: % inhibition AKT) [%] | inhibition at 0.5 µM (read-out: % inhibition p70s6k) [%] | IC50 (read-out: IC50 p-p70S6K) [nM] | inhibition at 0.25 µM (read-out: % inhibition AKT) [%] | inhibition at 0.25 µM (read-out: % inhibition p70s6k) [%]
1 | COc1ncc(-c2ccc3ncc(OCC4COC4)c(=O)n3c2)cc1NS(=O)(=O)c1sc(C)nc1C [compound 185] | ≤ 50 |  |  |  |  | 
2 | COc1ncc(-c2ccc3ncc(Cl)c(=O)n3c2)cc1NS(=O)(=O)c1ccc(F)c(F)c1 [compound 145] | ≤ 50 | 94.9 | 90.5 | 100 to 250 |  | 
3 | COc1ncc(-c2ccc3nccc(=O)n3c2C)cc1NS(=O)(=O)c1ccc(F)cc1F [compound 52, 2,4-difluoro-N-(2-methoxy-5-(6-methyl-4-oxo-4H-pyrido[1,2-a]pyrimidin-7-yl)pyridin-3-yl)benzsulfamide] |  | 69.3 | 50.3 |  |  | 
4 | COc1ncc(-c2ccc3nccc(=O)n3c2)cc1NS(=O)(=O)c1cnc2ccccc2c1 [compound 38] | ≤ 50 | 91.5 | 79.4 | > 250 |  | 
5 | CNc1cnc2ccc(-c3cnc(OC)c(NS(=O)(=O)c4ccc(F)cc4F)c3)cn2c1=O [compound 95, 2,4-difluoro-N-(2-methoxy-5-(3-(methylamino)-4-oxo-4H-pyrido[1,2-a]pyrimidin-7-yl)pyridin-3-yl)benzulfamide] | 100 to 250 |  |  |  |  | 
6 | COc1ncc(-c2ccc3nccc(=O)n3c2C)cc1NS(=O)(=O)c1c(F)cccc1F [compound 58] |  | 60.3 | 32.8 |  |  | 
7 | COc1ncc(-c2ccc3ncc(OCC(C)(C)OC)c(=O)n3c2)cc1NS(=O)(=O)c1sc(C)nc1C [compound 209] | ≤ 50 |  |  |  |  | 
8 | COc1ncc(-c2ccc3ncc(N)c(=O)n3c2)cc1NS(=O)(=O)c1sc(N)nc1C [compound 94] | ≤ 50 |  |  |  |  | 
9 | COc1ncc(-c2ccc3ncc(Cl)c(=O)n3c2)cc1NS(=O)(=O)c1cccnc1C [compound 164] | ≤ 50 |  |  | 50 to 100 | 79.4 | 89.6
10 | COc1ncc(-c2cn3c(=O)ccnc3cc2C)cc1NS(=O)(=O)c1ccc(C#N)cc1 [compound 129] |  | -24.2 | 1.2 |  |  | 
11 | COc1ncc(-c2ccc3ncc(N)c(=O)n3c2)cc1NS(=O)(=O)c1sccc1C [compound 92] | ≤ 50 |  |  |  |  | 
12 | COc1ncc(-c2ccc3ncc(C)c(=O)n3c2)cc1NS(=O)(=O)c1cccc(F)c1 [compound 86] | ≤ 50 | 92.8 | 88.1 | 100 to 250 |  | 
13 | COc1ncc(-c2cn3c(=O)ccnc3cn2)cc1NS(=O)(=O)c1cc(F)ccc1F [compound 41] |  | -10.1 | 0.1 |  |  | 
14 | COc1ncc(-c2ccc3ncc(Cl)c(=O)n3c2)cc1NS(=O)(=O)c1sccc1C [compound 143] | ≤ 50 | 95.7 | 87.7 | ≤ 50 |  | 
15 | COc1ncc(-c2ccc3nc(C)cc(=O)n3c2)cc1NS(=O)(=O)c1cc(F)ccc1F [compound 226] |  | 14.8 | 4.6 |  |  | 
16 | COc1ncc(-c2ccc3nc(N)cc(=O)n3c2)cc1NS(=O)(=O)c1sc(C)nc1C [compound 236, N-(5-(2-amino-4-oxo-4H-pyrido[1,2-a]pyrimidin-7-yl)-2-methoxypyridin-3-yl)-2,4-dimethylthiazolyl-5-sulfamide] | 50 to 100 |  |  |  |  | 
17 | COc1ncc(-c2cn3c(=O)ccnc3cc2F)cc1NS(=O)(=O)c1ccccc1F [compound 113] |  | -7.6 | 4.6 |  |  | 
18 | COc1ncc(-c2ccc3ncc(OCC4OCCO4)c(=O)n3c2)cc1NS(=O)(=O)c1sc(C)nc1C [compound 186] | ≤ 50 |  |  |  |  | 
19 | COc1ncc(-c2cn3c(=O)ccnc3cc2F)cc1NS(=O)(=O)c1ccc(F)cc1F [compound 112] |  | 40.8 | 3.6 |  |  | 
